Measured values: ChEMBL document CHEMBL2413058, “Structure-cytotoxic activity relationship of sesquilignan, morinol A” (Bioorg Med Chem Lett, 2013)

Legend:
HeLa [1] = experiment: Cytotoxicity against human HeLa cells after 48 hrs by WST8 assay; assay type: functional, cell-based
HeLa [2] = experiment: Cytotoxicity against human HeLa cells at 100 uM after 48 hrs by WST8 assay; assay type: functional
HL-60 [3] = experiment: Cytotoxicity against human HL60 cells after 48 hrs by WST8 assay; assay type: functional, cell-based; settings: HL-60, 48 h
HeLa [4] = experiment: Ratio of IC50 for human HeLa cells to IC50 for human HL60 cells; assay type: functional
HL-60 [5] = experiment: Cytotoxicity against human HL60 cells at 100 uM after 48 hrs by WST8 assay; assay type: functional; settings: HL-60, 48 h

Row | Compound | IC50 (HeLa [1]) [µM] | IC50 (HL-60 [3]) [µM] | also measured
1 | COc1ccc(/C=C/C[C@H]2C[C@@H]([C@@H](OC(C)=O)c3ccc(OC)c(OC)c3)CO[C@@H]2c2ccc(OC)c(OC)c2)cc1OC | > 100 |  | inhibition at 100 µM (HeLa [2]): 29%
2 | COc1cccc([C@@H]2OC[C@H]([C@@H](O)c3ccc(OC)c(OC)c3)C[C@H]2C/C=C/c2ccc(OC)c(OC)c2)c1 | 30.1 |  | 
3 | O[C@@H](c1ccccc1)[C@H]1CO[C@H](c2ccccc2)[C@@H](C/C=C/C2CCCCC2)C1 | 6.44 | 6.26 | 
4 | COc1ccccc1/C=C/C[C@H]1C[C@@H]([C@@H](O)c2ccccc2)CO[C@@H]1c1ccccc1 | 14.7 | 10.1 | 
5 | COc1ccc(/C=C/C[C@@H]2C[C@@H]([C@@H](O)c3ccc(OC)c(OC)c3)CO[C@H]2c2ccccc2)cc1OC | 16.1 |  | 
6 | COc1ccc(/C=C/C[C@H]2C[C@@H]([C@@H](O)c3ccc(OC)c(OC)c3)CO[C@@H]2c2ccccc2)cc1OC | 17 |  | 
7 | Oc1cccc(/C=C/C[C@H]2C[C@@H]([C@@H](O)c3ccccc3)CO[C@@H]2c2ccccc2)c1 | 18.6 | 12.8 | 
8 | COc1ccc(/C=C/C[C@@H]2C[C@@H]([C@@H](OC(C)=O)c3ccc(OC)c(OC)c3)CO[C@H]2c2ccc(OC)c(OC)c2)cc1OC | > 100 |  | inhibition at 100 µM (HeLa [2]): 48%
9 | Oc1ccccc1/C=C/C[C@H]1C[C@@H]([C@@H](O)c2ccccc2)CO[C@@H]1c1ccccc1 | 21.8 | 10.8 | 
10 | COc1ccc(CCC[C@@H]2C[C@@H]([C@@H](O)c3ccc(OC)c(OC)c3)CO[C@H]2c2ccc(OC)c(OC)c2)cc1OC | 35.7 |  | 
11 | COc1ccc(/C=C/C[C@H]2C[C@@H]([C@@H](OC)c3ccc(OC)c(OC)c3)CO[C@@H]2c2ccc(OC)c(OC)c2)cc1OC | > 100 |  | inhibition at 100 µM (HeLa [2]): 4.8%
12 | COc1cccc([C@H]2OC[C@H]([C@@H](O)c3ccc(OC)c(OC)c3)C[C@@H]2C/C=C/c2ccc(OC)c(OC)c2)c1 | 21.8 |  | 
13 | COc1cccc(/C=C/C[C@H]2C[C@@H]([C@@H](O)c3ccccc3)CO[C@@H]2c2ccccc2)c1 | 10.9 | 9.62 | 
14 | COc1ccc(/C=C/C[C@H]2C[C@@H]([C@@H](O)c3ccccc3)CO[C@@H]2c2ccc(OC)c(OC)c2)cc1OC | 15.5 |  | 
15 | COc1ccc([C@H]2OC[C@H]([C@@H](O)c3ccc(OC)c(OC)c3)C[C@@H]2C/C=C/c2ccc(OC)c(OC)c2)cc1 | 46.7 |  | 
16 | COc1ccc(/C=C/C[C@@H]2C[C@@H]([C@@H](O)c3ccccc3)CO[C@H]2c2ccc(OC)c(OC)c2)cc1OC | 16.8 |  | 
17 | COc1ccc(/C=C/C[C@@H]2C[C@@H]([C@@H](OC)c3ccc(OC)c(OC)c3)CO[C@H]2c2ccc(OC)c(OC)c2)cc1OC | > 100 |  | inhibition at 100 µM (HeLa [2]): 34%
18 | CCCCCC/C=C/C[C@H]1C[C@@H]([C@@H](O)c2ccccc2)CO[C@@H]1c1ccccc1 | 7.4 | 4.99 | 
19 | COc1cccc(/C=C/C[C@H]2C[C@@H]([C@@H](O)c3ccc(OC)c(OC)c3)CO[C@@H]2c2ccc(OC)c(OC)c2)c1 | 14 |  | 
20 | COc1ccc(CCC[C@H]2C[C@@H]([C@@H](O)c3ccc(OC)c(OC)c3)CO[C@@H]2c2ccc(OC)c(OC)c2)cc1OC | 37.7 |  | 
21 | Oc1ccc(/C=C/C[C@H]2C[C@@H]([C@@H](O)c3ccccc3)CO[C@@H]2c2ccccc2)cc1 | 14.4 | 7.38 | 
22 | O[C@@H](c1ccccc1)[C@H]1CO[C@H](c2ccccc2)[C@@H](C/C=C/c2cccc(F)c2)C1 | 8.38 | 9.17 | 
23 | Cc1ccc(/C=C/C[C@H]2C[C@@H]([C@@H](O)c3ccccc3)CO[C@@H]2c2ccccc2)cc1C | 10 | 9.88 | 
24 | O[C@@H](c1ccccc1)[C@H]1CO[C@H](c2ccccc2)[C@@H](C/C=C/c2ccccn2)C1 | 33.8 | 36.4 | 
25 | COc1ccc([C@@H]2OC[C@H]([C@@H](O)c3ccc(OC)c(OC)c3)C[C@H]2C/C=C/c2ccc(OC)c(OC)c2)cc1 | 29.2 |  | 

Row | Compound | IC50 (HeLa [1]) [µM] | IC50 (HL-60 [3]) [µM] | also measured
26 | COc1ccc(/C=C/C[C@H]2C[C@@H]([C@@H](O)c3ccc(OC)c(OC)c3)CO[C@@H]2c2ccc(OC)c(OC)c2)cc1OC | 23.8 | 34.7 | 
27 | COc1cccc(/C=C/C[C@@H]2C[C@@H]([C@@H](O)c3ccc(OC)c(OC)c3)CO[C@H]2c2ccc(OC)c(OC)c2)c1 | 16.4 |  | 
28 | O=[N+]([O-])c1cccc(/C=C/C[C@H]2C[C@@H]([C@@H](O)c3ccccc3)CO[C@@H]2c2ccccc2)c1 | 7.85 | 6.35 | 
29 | O[C@@H](c1ccccc1)[C@H]1CO[C@H](c2ccccc2)[C@@H](C/C=C/c2ccccc2)C1 | 6.06 | 7.04 | Ratio IC50 (HeLa [4]): 1.5
30 | O[C@@H](c1ccccc1)[C@H]1CO[C@H](c2ccccc2)[C@@H](C/C=C/c2ccc(F)cc2)C1 | 8.34 | 8.11 | 
31 | COc1ccc(/C=C/C[C@H]2C[C@@H]([C@@H](O)c3ccccc3)CO[C@@H]2c2ccccc2)cc1 | 8.3 | 9.01 | 
32 | COc1cccc([C@H](O)[C@H]2CO[C@H](c3ccc(OC)c(OC)c3)[C@@H](C/C=C/c3ccc(OC)c(OC)c3)C2)c1 | 21.2 |  | 
33 | O[C@@H](c1ccccc1)[C@H]1CO[C@H](c2ccccc2)[C@@H](C/C=C/c2ccccc2F)C1 | 9.73 | 9.53 | 
34 | COc1ccc([C@H](O)[C@H]2CO[C@@H](c3ccc(OC)c(OC)c3)[C@H](C/C=C/c3ccc(OC)c(OC)c3)C2)cc1 | 32.2 |  | 
35 | O=[N+]([O-])c1ccccc1/C=C/C[C@H]1C[C@@H]([C@@H](O)c2ccccc2)CO[C@@H]1c1ccccc1 | 11.8 | 7.25 | 
36 | COc1ccc(/C=C/C[C@H]2C[C@H]([C@H](O)c3ccc(OC)c(OC)c3)CO[C@@H]2c2ccc(OC)c(OC)c2)cc1OC | 34.6 | 23.5 | 
37 | COc1ccc(/C=C/C[C@H]2C[C@@H]([C@@H](O)c3ccc(OC)c(OC)c3)CO[C@@H]2c2ccc(OC)c(OC)c2)cc1 | 12.2 |  | 
38 | COc1ccc([C@H]2OC[C@H]([C@@H](O)c3ccc(OC)c(OC)c3)C[C@@H]2C/C=C/c2ccccc2)cc1OC | 14.8 |  | 
39 | C=CC[C@H]1C[C@@H]([C@@H](O)c2ccccc2)CO[C@@H]1c1ccccc1 | 25.4 | 36 | 
40 | COc1ccc([C@H](O)[C@H]2CO[C@H](c3ccc(OC)c(OC)c3)[C@@H](C/C=C/c3ccc(OC)c(OC)c3)C2)cc1 | 46 |  | 
41 | COc1ccc(/C=C/C[C@@H]2C[C@H]([C@H](O)c3ccc(OC)c(OC)c3)CO[C@H]2c2ccc(OC)c(OC)c2)cc1OC | 28.7 |  | 
42 | O[C@@H](c1ccccc1)[C@H]1CO[C@H](c2ccccc2)[C@@H](C/C=C/c2cccnc2)C1 | > 100 | > 100 | inhibition at 100 µM (HL-60 [5]): 48%; inhibition at 100 µM (HeLa [2]): 4%
43 | O[C@@H](c1ccccc1)[C@H]1CO[C@H](c2ccccc2)[C@@H](C/C=C/c2ccncc2)C1 | > 100 | > 100 | inhibition at 100 µM (HL-60 [5]): 13%; inhibition at 100 µM (HeLa [2]): 34%
44 | O[C@@H](c1ccccc1)[C@H]1CO[C@H](c2ccccc2)[C@@H](C/C=C/C2CCCC2)C1 | 9.33 | 9.06 | 
45 | COc1cccc([C@H](O)[C@H]2CO[C@@H](c3ccc(OC)c(OC)c3)[C@H](C/C=C/c3ccc(OC)c(OC)c3)C2)c1 | 18.6 |  | 
46 | COc1ccc(/C=C/C[C@@H]2C[C@@H]([C@@H](O)c3ccc(OC)c(OC)c3)CO[C@H]2c2ccc(OC)c(OC)c2)cc1 | 17.1 |  | 
47 | COc1ccc([C@H](O)[C@H]2CO[C@@H](c3ccc(OC)c(OC)c3)[C@H](C/C=C/c3ccccc3)C2)cc1OC | 16.1 |  | 
48 | COc1ccc(/C=C/C[C@@H]2C[C@@H]([C@@H](O)c3ccc(OC)c(OC)c3)CO[C@H]2c2ccc(OC)c(OC)c2)cc1OC | 30.6 | 26 | 
49 | O=[N+]([O-])c1ccc(/C=C/C[C@H]2C[C@@H]([C@@H](O)c3ccccc3)CO[C@@H]2c2ccccc2)cc1 | 12.4 | 4.88 | 
